Assay type in all cases: biochemical
One experiment has as its target T1, HCPTP-A (Homo sapiens, UniProt P24666).
T1 sequence (P24666 1-158): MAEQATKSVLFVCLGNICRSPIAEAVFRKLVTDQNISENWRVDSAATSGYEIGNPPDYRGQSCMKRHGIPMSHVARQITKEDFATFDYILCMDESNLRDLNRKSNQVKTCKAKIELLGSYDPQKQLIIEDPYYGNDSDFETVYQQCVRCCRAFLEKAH
Nature of the experiment: pNPP phosphatase inhibition assay, HCPTP-A.

Another experiment has as its target T2, HCPTP-B (Homo sapiens, UniProt P24666).
T2 sequence (P24666 1-158 isoform P24666-2): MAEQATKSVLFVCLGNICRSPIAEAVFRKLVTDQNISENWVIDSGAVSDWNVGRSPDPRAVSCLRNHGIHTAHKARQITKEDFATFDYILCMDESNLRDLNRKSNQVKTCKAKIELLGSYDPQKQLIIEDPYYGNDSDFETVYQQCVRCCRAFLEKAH
Nature of the experiment: pNPP phosphatase inhibition assay, HCPTP-B. To be noted: for inhibition at 100 µM: pH 5, read-out: inhibition of HCPTP-B activity.

The target of experiment [1] is T3, HCPTP (Homo sapiens, UniProt P24666).
T3 sequence (P24666 1-158): T1 sequence (P24666 1-158)
Nature of the experiment: single concentration screen repeated with 0.01% Triton X-100. To be noted: 0.01% Triton X-100 and reducing agents.

The target in experiment [2] is T4, HCPTP (Homo sapiens, UniProt P24666).
T4 sequence (P24666 2-158): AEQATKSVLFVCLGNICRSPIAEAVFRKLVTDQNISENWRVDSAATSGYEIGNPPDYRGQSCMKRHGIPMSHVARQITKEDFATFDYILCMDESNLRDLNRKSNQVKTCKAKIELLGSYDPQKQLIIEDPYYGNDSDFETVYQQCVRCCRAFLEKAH
Nature of the experiment: pNPP single concentration screen, isoform not specified. To be noted: pH 5, read-out: elevation of the activity of HCPTP.

The mark [3] stands for this setting: pH 7, read-out: reduction of the activity of HCPTP-A, 100 μM compound, pH 7.
Setting [4] is: pH 5, read-out: inhibition of HCPTP-A activity, 100 μM compound, pH 5.
Where [5] appears, read: IC50 HCPTP-B, pH 5 (Table I), pNPP substrate, 25 °C.
Setting [6] is: IC50 HCPTP-A pH 5, pH 5 (Table II).
The mark [7] stands for this setting: IC50 HCPTP-A, pH 5 (Table I), pNPP substrate, 25 °C.
Setting [8] is: pH 5, read-out: inhibition of HCPTP-A activity.
Setting [9] is: pH 7, read-out: reduction of the activity of HCPTP-A.
Setting [10] is: IC50 HCPTP-A pH 5 (dash class), pH 5 (Table II), dash entries.
[11] abbreviates: read-out: IC50 HCPTP-A pH 7, pH 7 (Table II).

pIC50: −log10 of the molar value. Read-outs that look alike come from different tables or passages of the source. Where only a bound is given, the exact number is not on record here.

Regarding `N=C(N)NC(=N)Nc1ccc(S(=O)(=O)O)cc1` [Compound 17580], the inhibition at 100 µM on HCPTP-A (setting [3]) is not below 10%.

Regarding `C[C@]12CC[C@@H]3c4ccc(OP(=O)(O)O)cc4CC[C@H]3[C@@H]1CCC2=O` [Compound 18320], the inhibition at 100 µM at HCPTP-A (setting [3]) is not below 10%.

With `N=C(Cc1ccccc1)NCC(=O)O` [Compound 27895], the inhibition at 100 µM on HCPTP-B, on HCPTP-A (setting [4]) and at HCPTP-A (setting [3]) was not below 10% throughout.

With `Cc1ncc(OP(=O)(O)O)c(C)c1O` [Compound 29870], the inhibition at 100 µM at HCPTP-B and at HCPTP-A (setting [4]) was not below 10% throughout.

With `NC(Cc1ccccc1)P(=O)(O)O` (stereo not shown) [Compound 30080], the pIC50 on HCPTP-B (setting [5]) is 3.86; at HCPTP-A (setting [6]) it was 3.65; at HCPTP-A (IC50 HCPTP-A pH 7 (dash class), pH 7 (Table II), dash entries), less than 4.00; against HCPTP-A (setting [7]), 3.65. The inhibition at 100 µM at HCPTP-B, at HCPTP-A (setting [8]) and at HCPTP-A (setting [9]) was not below 10% throughout.

`CCc1ccc(CCC(=O)O)nc1` [Compound 35989]: the “reduction of the activity of HCPTP-A” value at HCPTP-A (100 μM compound, pH 7) was “at least 10%”.

As for `Cn1c(=O)c2[nH]c(CCC(=O)O)nc2n(C)c1=O` [Compound 36534], the inhibition at 100 µM at HCPTP-A (setting [3]) was not below 10%.

For `O=S(=O)(O)c1ccc2c(/N=N/c3c(O)ccc4ccccc34)cccc2c1` [Compound 45576], the “level of inhibition in the presence of detergent” value (“level of inhibition” for short) on HCPTP [1] was “maintained an approximately constant level of inhibition”. The pIC50 against HCPTP-B (setting [5]) is 5.41; against HCPTP-A (setting [6]), 5.26; on HCPTP-A (setting [7]), 5.26. The inhibition at 100 µM at HCPTP-B and at HCPTP-A (setting [4]) was not below 10% throughout.

As for `NC(Cc1c[nH]c2ccc([N+](=O)[O-])cc12)C(=O)O` (stereo not shown) [Compound 58612], the inhibition at 100 µM on HCPTP-A (setting [3]) was not below 10%.

For the compound `NC(Cc1c[nH]c2cc([N+](=O)[O-])ccc12)C(=O)O` (stereo not shown) [Compound 65763], at HCPTP [2], the activation at 100 µM is not below 10%. In addition, the pIC50 was less than 4.00 against HCPTP-A (setting [10]) and 4.29 at HCPTP-A (setting [11]).

Regarding `O=C(O)/C(Cc1ccnc2ccccc12)=N/O` [Compound 85359], the inhibition at 100 µM on HCPTP-B and on HCPTP-A (setting [4]) was not below 10% in each case. The negative logarithm of the IC50 (pIC50) against HCPTP-A (setting [10]) was less than 4.00; at HCPTP-A (setting [11]), 4.14.

For `CC12CC(=O)C3C(CCC4=CC(=O)CCC43C)C1CC=C2CC(=O)O` (stereo not shown) [Compound 86008], the inhibition at 100 µM on HCPTP-A (setting [3]) is not below 10%.

As to `CC1OC(OC2C(O)C(O)C(O)C(O)C2O)C(N)CC1NC(=N)C(=O)O` (stereo not shown) [Compound 100858], the inhibition at 100 µM on HCPTP-A (setting [3]) is not below 10%.

As for `CC(=O)Nc1ccc(-c2ccc3[nH]c(=O)cc(C)c3c2)cc1` [Compound 109816], the activation at 100 µM at HCPTP [2] is not below 10%. Besides, the inhibition at 100 µM on HCPTP-A (setting [3]) is not below 10%.

With `C[C@]12CC[C@@H]3c4ccc(O)cc4CC[C@H]3[C@@H]1C/C(=N\O)[C@@H]2O` [Compound 112737], at HCPTP-A (setting [3]), the inhibition at 100 µM was not below 10%.

For `CC12CCC(=O)C=C1CCC1C2CCC2(C)C(C(=O)Cn3cnc4c(=S)nc[nH]c43)CCC12` (stereo not shown) [Compound 114792], the inhibition at 100 µM on HCPTP-B and on HCPTP-A (setting [4]) was not below 10% each time.

For the compound `Nc1nc(N)c(N=Nc2ccc([As](=O)(O)O)c(O)c2)c(N)n1` [Compound 117281], the inhibition at 100 µM at HCPTP-A (setting [9]) is not below 10%.

With `O=C1C2=C(CC=CC2)C(=O)c2c(Nc3ccc(S(=O)(=O)O)cc3)ccc(Nc3ccccc3)c21` [Compound 128437], the “level of inhibition” value on HCPTP [1] was “maintained an approximately constant level of inhibition”. Further, the pIC50 at HCPTP-B (setting [5]) was 5.35; against HCPTP-A (setting [6]) it was 5.26; on HCPTP-A (setting [7]), 5.26; on HCPTP-A (setting [11]) it was 5.44. Besides, the inhibition at 100 µM at HCPTP-B and at HCPTP-A (setting [4]) was not below 10% throughout.

For the compound `CC[C@H]1CN2CCc3cc(OC)c(OC)cc3C2C[C@@H]1C[C@@H]1NCCc2c1[nH]c1ccc(O)cc21` (stereo partly shown) [Compound 131547], the inhibition at 100 µM at HCPTP-A (setting [9]) was not below 10%.

`NC(c1ccccc1)P(=O)(O)O` (stereo not shown) [Compound 133811]: the inhibition at 100 µM on HCPTP-B and on HCPTP-A (setting [4]) was not below 10% each time.

For `Nc1cncc(Nc2ccc(S(N)(=O)=O)cc2)n1` [Compound 135784], the inhibition at 100 µM at HCPTP-A (setting [3]) was not below 10%.

Take `O=C(O)CC1NCc2cc3ccccc3nc21` (stereo not shown) [Compound 141566]: the inhibition at 100 µM at HCPTP-B and on HCPTP-A (setting [4]) was not below 10% throughout. Moreover, the pIC50 at HCPTP-A (setting [10]) is less than 4.00; against HCPTP-A (IC50 HCPTP-A pH 7, pH 7 (Table II)), 5.32.

With `Oc1cc(O)c2c(c1)OC(c1ccc(O)c(O)c1)C(O)C2c1c(O)cc(O)c2c1OC(c1ccc(O)c(O)c1)C(O)C2` (stereo not shown) [Compound 143099], the activation at 100 µM at HCPTP [2] is not below 10%.

On to `CC1CN(CC(N)C(=O)O)C(=O)NC1=O` (stereo not shown) [Compound 151831], for which, on HCPTP-A (setting [3]), the inhibition at 100 µM is not below 10%.

`NC(Cc1cc(Br)c(O)c(Br)c1)C(=O)O` (stereo not shown) [Compound 210786]: the activation at 100 µM on HCPTP [2] was not below 10%. Also, the negative logarithm of the IC50 (pIC50) against HCPTP-A (setting [10]) is less than 4.00; at HCPTP-A (setting [11]), 5.34.

On to `O=C(O)C1CSC2(CCN(c3ccccc3)CC2)N1` (stereo not shown) [Compound 319095], for which the “level of inhibition” value on HCPTP [1] was “maintained an approximately constant level of inhibition”. Also, the results for the pIC50 against HCPTP-A (setting [10]) and on HCPTP-A (setting [11]) were less than 4.00 and 5.40, respectively.

`NC1CCCCC1P(=O)(O)O` (stereo not shown) [Compound 320308]: the inhibition at 100 µM on HCPTP-B and on HCPTP-A (setting [8]) was not below 10% each time.

On to `C[S+](=N)([O-])CCP(=O)(O)O` (stereo not shown) [Compound 359098], for which, on HCPTP-A (setting [9]), the inhibition at 100 µM was not below 10%.

`Nc1nc(-c2ccc3ccccc3c2)cc(-c2cc(-c3ccc4ccccc4c3)nc(N)n2)n1` [Compound 371878]: the inhibition at 100 µM on HCPTP-A (setting [3]) was not below 10%.

In the case of `NC(Cc1ccc2oc3cc(=O)c4ccccc4c-3nc2c1)C(=O)O` (stereo not shown) [Compound 643735], the inhibition at 100 µM on HCPTP-B and at HCPTP-A (setting [4]) was not below 10% throughout.

Turning to `NC(c1c[nH]c2ccccc12)P(=O)(O)O` (stereo not shown) [Compound 669581], on HCPTP-A (setting [3]), the inhibition at 100 µM was not below 10%.

As to `[O]=[V]([OH])([OH])[OH]` [orthovanadate, reference compound], the pIC50 at HCPTP-B (read-out: IC50 HCPTP-B, general phosphatase inhibitor, pH not stated) is 4.21; at HCPTP-A (read-out: IC50 HCPTP-A, general phosphatase inhibitor, pH not stated), 4.96.

Broadly, the pIC50 is −log10 of the IC50, conventionally taken in molar units.
